Experimental data from patent US10450549B2, “Aryloxyphenoxypropionate tolerance in turfrgass species and use of AAD1 as a selectable marker” (Dow AgroSciences, LLC, priority 2004, dated 2019).
Like-named read-outs stand apart in the source and are kept apart here.

What was measured:
AAD1 (v1) = target: T1, AAD1 (v1) (Sphingobium herbicidovorans, UniProt Q8KSC8); experiment: Colorimetric phenol detection assay of AAD1 (v1) activity (purified enzyme or E. coli extract); type: biochemical; conditions: for activity of AAD1 (v1) E. coli extract on substrate: 0.5 mM substrate, 4 μl extract, 15 min; for A510, AAD1 / A510, AAD1 (10x): Table 4, substrate 1 mM; for A510, AAD1: 1 μg purified AAD1 (v1) per 0.16 ml assay; for A510, AAD1 (10x): 10 μg purified AAD1 (v1) per 0.16 ml assay
T1 construct: made in house; host or cells: E. coli BL-21 Star (DE3), plasmid pDAB3203
T1 sequence (Q8KSC8 whole entry): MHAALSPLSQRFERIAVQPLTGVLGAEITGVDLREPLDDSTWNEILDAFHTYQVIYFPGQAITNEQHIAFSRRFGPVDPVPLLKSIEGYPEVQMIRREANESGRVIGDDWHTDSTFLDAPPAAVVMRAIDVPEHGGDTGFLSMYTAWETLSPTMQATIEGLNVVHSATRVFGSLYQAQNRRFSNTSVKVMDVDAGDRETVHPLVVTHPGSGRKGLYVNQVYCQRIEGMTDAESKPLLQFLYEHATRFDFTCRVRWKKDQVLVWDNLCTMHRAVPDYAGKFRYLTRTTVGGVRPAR

[1] = tested on: Agrostis palustris var. Pencross; experiment: Bentgrass plate test bioassay for herbicide degradation; type: in vivo; conditions: for GR50 ratio: enzyme-expressing lysate vs blank vector, ≥ 2 = threshold
Method: Because of the selective nature of the herbicides being tested (i.e., monocot plants controlled by AOPP herbicides and dicot plants controlled by auxinic herbicides), wildtype Agrostis palustris var. Pencross and Arabidopsis thaliana var. Columbia were used as monocot and dicot test species, respectively. Each species is amenable to germination and growth in small Petri dishes.
Twenty to thirty sterilized seeds for each test species used were added onto a sterile, solidified agar Plate Test Medium (PTM) [2.5 mM KNO3, 2.5 mM KH2PO4, […], 10 mM NaEDTA (pH 8.0), 2 mM MgSO4, 2 mM Ca(NO3) 2, 70 μM H3BO3, 14 μM MnCl2, 0.5 μM CuSO4, 1 μM ZnSO4, 0.2 μM NaMoO4.2H2O, 10 μM NaCl, 10 nM CoCl2.H2O, 0.8% (w/v) sucrose, 0.4% agarose (w/v)] for bioassay in 60×15-mm Petri dishes (Falcon 1007). PTM was additionally modified by adding up to six rates of test herbicide standards or herbicide-enzyme test solution dilutions such that the four-fold concentration increments covered a rate range of three orders of magnitude with the GR50 rate (50% growth reduction) approximately in the center of the range.
For herbicide-enzyme test solutions, the maximal concentration was determined based on the nominal concentration before any subsequent enzymatic degradation would occur. Seeds were evenly spread by adding 3 ml of melted PTM of the same composition, swirling, and allowing to solidify. Plates were sealed and maintained under sterile conditions in a low light growth chamber (24 h day^−1, 100 μE/m^2s^1, 23° C.) for 7 days. Root length or root+shoot length were measured for five randomly chosen Arabidopsis and bentgrass plants, respectively, average mean length (percent of untreated control) vs. nominal herbicide concentration and GR50 determined.

wildtype KY 160 tobacco = experiment: Wildtype tobacco response to phenoxy auxin herbicides; type: in vivo, Nicotiana tabacum; conditions: KY160-Wildtype
Method: Each treatment was replicated 1-3 times. Injury ratings were recorded 3 and 14 DAT. […] In several events, some initial auxinic herbicide-related epinasty occurred at doses of 800 g ae/ha or less. […] All events suffered some level temporary auxinic damage 3 DAT when treated with 3200 g ae/ha. Some leaf burning also occurred at this high rate due to the acidity of the spray solution. Future trials at high 2,4-D rates were buffered. […] Some events were inconsistent in response among replicates and were deemed “variable” (Table 27).
(§1) Two AAD1 (v3) tobacco lines (event 721(2)-013.010 and 721(3)-008.005) were chosen from the T0 generation. The T1 seed was stratified, and sown into selection trays much like that of Arabidopsis (Example 6.4), followed by selective removal of untransformed nulls in this segregating population with 280 g ai/ha glufosinate (PAT selection). Survivors were transferred to individual 3-inch pots in the greenhouse. […] Improved consistency of response is anticipated in T1 plants not having come directly from tissue culture. These plants were compared against wildtype KY 160 tobacco. All plants were sprayed with the use of a track sprayer set at 187 L/ha. […] All applications were formulated in 200 mM Hepes buffer (pH 7.5). Each treatment was replicated 4 times. Plants were evaluated at 3 and 14 days after treatment. Plants were assigned injury rating with respect to stunting, chlorosis, and necrosis. The T1 generation is segregating, so some variable response is expected due to difference in zygosity. (Table 28).

[2] = tested on: transformed-control line containing PAT and Cry1F; experiment: Foliar-applied auxinic herbicides on control (PAT/Cry1F, wildtype) Arabidopsis, % injury 14 DAT; type: in vivo, Arabidopsis thaliana; conditions: PatCry1f - Control
Method: The ability of AAD1 (v3) to provide resistance to other aryloxyphenoxyalkanoate auxin herbicides in transgenic Arabidopsis was determined by foliar application of various substrates described in Example 6.8. T4 generation Arabidopsis seed, homozygous for AAD1 (v3) (line AAD1.01.315.076) was stratified, and sown into selection trays much like that of Arabidopsis (Example 6.4). A transformed-control line containing PAT and the insect resistance gene Cry1F was planted in a similar manner. Seedlings were transferred to individual 3-inch pots in the greenhouse. All plants were sprayed with the use of a track sprayer set at 187 L/ha. […] All applications were formulated in 200 mM Hepes buffer (pH 7.5). Each treatment was replicated 3-4 times. Plants were evaluated at 3 and 14 days after treatment and are averaged over two experiments.

[3] = tested on: T4 Arabidopsis homozygous for AAD1 (v3) (line AAD1.01.315.076); experiment: Foliar-applied auxinic herbicides on homozygous T4 AAD1 (v3) Arabidopsis, % injury 14 DAT; type: in vivo, Arabidopsis thaliana; conditions: AAD1.01.315.076.T4 homozygous AAD1 plants
Procedure, shortened: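 Homozygous T4 AAD1 (v3) Arabidopsis (line AAD1.01.315.076) and a PAT/Cry1F transformed control were grown in pots and track-sprayed foliarly at 187 L/ha with herbicides formulated in 200 mM Hepes pH 7.5. Injury was rated 14 days after treatment, with 3-4 replicates averaged over two experiments.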

[4] = tested on: AAD1 (v3) T1 tobacco (events 721(2)-013.010 and 721(3)-008.005); experiment: Segregating AAD1 T1 tobacco response to phenoxy auxin herbicides; type: in vivo, Nicotiana tabacum
Text: as §1

[5] = tested on: Hi-II corn grown from seed; experiment: Lethal dose of AOPP herbicides on non-transformed Hi-II corn
[6] = tested on: AAD1 (v3)-transformed T0 corn events; experiment: Tolerance of T0 AAD1 (v3) corn plants (pDAB3404) to postemergence AOPP herbicides; type: in vivo
[7] = tested on: F1 corn containing AAD1 (v3), PAT, and glyphosate resistance genes; experiment: Greenhouse injury of F1 corn stacked with AAD1 (v3), PAT and glyphosate resistance (2,4-D DMA, glyphosate, glufosinate and combinations); type: in vivo; conditions: RR/PAT/AAD1
Text: Homozygous T2 AAD1 (v3)/PAT corn plants were crossed with glyphosate resistant corn plants producing F1 seed containing AAD1 (v3), PAT, and glyphosate resistance genes as described in the previous example.
(§2) F1 seeds were planted individually into 3-inch pots prepared with Metro-Mix® 360 growing medium (Sun Gro Horticulture). […] For the remainder of the study the plants were subirrigated with deionized water.
(§3) The plants were sprayed with rates of 2,4-D DMA, glyphosate, glufosinate, and various combinations of the three. All applications were formulated in 200 mM Hepes buffer (pH 7.5). In spray applications where glufosinate was present the treatment was formulated with the addition of 2% w/v ammonium sulfate.
(§4) At 3 and 14 days after treatment (DAT) plants were evaluated. Plants were assigned injury rating with respect to stunting, chlorosis, and necrosis. Plants assigned an injury rating of 90% or above are considered dead.

Hi II X 5XH751 = experiment: Greenhouse injury of non-transformed Hi II X 5XH751 corn (2,4-D DMA, glyphosate, glufosinate and combinations); type: in vivo
Method: as §2, §3, §4

[8] = Agrostis stolonifera, AAD1 (v1)-expressing lysate, nominal concentration, read-out: GR50, Chemical + AAD1 v1
[9] = Escherichia coli, in Agrostis stolonifera, cell lysate of E. coli pET vector without gene insert, read-out: GR50, Chemical + Blank Vector
[10] = purified AAD1 (v1), 1 mM substrate

## CC(Oc1ccc(Oc2ccc(Cl)cc2Cl)cc1)C(=O)O (racemic) [(R,S)- diclofop]
AAD1 (v1)
  activity of AAD1 (v1) E. coli extract on substrate: cleaved
  A510, AAD1: 0.155
  A510, AAD1 (10x): 1.663
[1]; AAD1 (v1) extract
  herbicidal activity after AAD1 (v1) treatment, bentgrass plate bioassay: loss of herbicidal activity
[1]; [8]
  IC50: 0.13 µM
[1]; [9]
  IC50: 0.02 µM
[1]
  GR50 ratio: 7

## CC(Oc1ccc(Oc2ncc(C(F)(F)F)cc2Cl)cc1)C(=O)O (stereo not shown) [Haloxyfop-RS]
AAD1 (v1)
  activity of AAD1 (v1) E. coli extract on substrate: cleaved
[1]; Agrostis stolonifera, 168 h, root+shoot length, 7 days, read-out: GR50, Chemical alone
  IC50: 0.028 µM
[1]; [8]
  IC50: 0.52 µM
[1]; [9]
  IC50: 0.021 µM
[1]
  GR50 ratio: 25

## C[C@@H](Oc1ccc(Cl)cc1Cl)C(=O)O [R-dichlorprop]
Wildtype KY 160 tobacco; 560 g ae/ha
  Average % Injury of Replicates 14 DAT: 70%
Wildtype KY 160 tobacco; 1120 g ae/ha
  Average % Injury of Replicates 14 DAT: 75%
Wildtype KY 160 tobacco; 2240 g ae/ha
  Average % Injury of Replicates 14 DAT: 88%
Wildtype KY 160 tobacco; 4480 g ae/ha
  Average % Injury of Replicates 14 DAT: 95%
[2]; 50 g ae/ha foliar
  Ave % Injury 14DAT: 31%
[2]; 200 g ae/ha foliar
  Ave % Injury 14DAT: 73%
[2]; 800 g ae/ha foliar
  Ave % Injury 14DAT: 89%
[2]; 3200 g ae/ha foliar
  Ave % Injury 14DAT: 95%
[3]; 50 g ae/ha foliar
  Ave % Injury 14DAT: 3%
[3]; 200 g ae/ha foliar
  Ave % Injury 14DAT: 3%
[3]; 800 g ae/ha foliar
  Ave % Injury 14DAT: 3%
[3]; 3200 g ae/ha foliar
  Ave % Injury 14DAT: 3%
[4]; 560 g ae/ha, 721(2)013.010 (medium tolerance in T0 generation)
  Average % Injury of Replicates 14 DAT: 5%
[4]; 560 g ae/ha, 721(3)008.005 (high tolerance in T0 generation)
  Average % Injury of Replicates 14 DAT: 0%
[4]; 1120 g ae/ha, 721(2)013.010 (medium tolerance in T0 generation)
  Average % Injury of Replicates 14 DAT: 5%
[4]; 1120 g ae/ha, 721(3)008.005 (high tolerance in T0 generation)
  Average % Injury of Replicates 14 DAT: 0%
[4]; 2240 g ae/ha, 721(2)013.010 (medium tolerance in T0 generation)
  Average % Injury of Replicates 14 DAT: 5%
[4]; 2240 g ae/ha, 721(3)008.005 (high tolerance in T0 generation)
  Average % Injury of Replicates 14 DAT: 0%
[4]; 4480 g ae/ha, 721(2)013.010 (medium tolerance in T0 generation)
  Average % Injury of Replicates 14 DAT: 10%
[4]; 4480 g ae/ha, 721(3)008.005 (high tolerance in T0 generation)
  Average % Injury of Replicates 14 DAT: 5%
[4]; rates below 1× field rates (560 g ae/ha), either event
  injury of T1 AAD1 (v3) tobacco: No injury was observed
AAD1 (v1); purified AAD1 (v1)
  kcat: 0.435 s⁻¹
AAD1 (v1); purified AAD1 (v1), 25 mM MOPS pH 6.8, 25° C., read-out: Km ± SE
  Km: 75 ± 10 µM
AAD1 (v1); purified AAD1 (v1), Michaelis-Menten fit
  Vmax ± SE: 0.79 ± 0.03 μmol min^−1 mg^−1 AAD1

## C[C@@H](Oc1ccc(Oc2ccc(C#N)cc2F)cc1)C(=O)O [cyhalofop]
AAD1 (v1)
  A510, AAD1: 0.114
  A510, AAD1 (10x): 1.26
AAD1 (v1); [10]
  activity relative to the dichlorprop rate: 21%
  activity relative to the quizalofop rate: 27%
[5]; Clincher + 1% COC (v/v)
  lethal dose: 62.5 g ae/ha)
[5]; postemergence, commercial formulations
  rate that effectively kills (>95% injury) three to four leaf Hi-II corn: 62.5 g ae/ha
[6]; 62.5 g ae/ha, construct 3404 event 001 clone 018
  % Injury 14 DAT: 0%
[6]; 62.5 g ae/ha, construct 3404 event 022 clone 024
  % Injury 14 DAT: 0%
[6]; 62.5 g ae/ha, construct 3404 event 038 clone 018
  % Injury 14 DAT: 0%
[6]; 125 g ae/ha, construct 3404 event 022 clone 018
  % Injury 14 DAT: 0%

## CP(=O)(O)CCC(N)C(=O)O (stereo not shown) [glufosinate]
[7]; 470 g ae/ha (1X)
  % Injury at 14 DAT Ave: 0%
[7]; 940 g ae/ha (2X)
  % Injury at 14 DAT Ave: 3%
[7]; 1880 g ae/ha (4X)
  % Injury at 14 DAT Ave: 15%
Hi II X 5XH751; 470 g ae/ha (1X)
  % Injury at 14 DAT Ave: 80%
Hi II X 5XH751; 940 g ae/ha (2X)
  % Injury at 14 DAT Ave: 90%
Hi II X 5XH751; 1880 g ae/ha (4X)
  % Injury at 14 DAT Ave: 96%
